# Laboratory results from patent publication US7649013B2, “Methods of protecting against radiation injury” (priority 2003, dated 2010).
# Entries after “also recorded” stand apart in the source; their conditions may differ.
# Legend:
# [1] = tested on: C57BL/6J inbred strain female mice; assay: Survival after 8 Gy whole body γ-irradiation, oral 200 mg/kg at varying time points before (Example 6); format: in vivo; conditions: for No. of animals surviving at 20 days post-irradiation: 10 animals; for Death rate (%): 20 days
# Method: (§1) β-lapachone is prepared at 10 mg/ml in 40% hydroxypropyl-beta-cyclodextrin (HPBCD).
# (§2) C57BL/6J inbred strain female mice (4-5 weeks old) are used. Animals are maintained in a climate-controlled animal facility.
# β-lapachone (200 mg/kg body weight) is orally administered to animals at either 0.5 hour, 1 hour, 2 hours, 4 hours or 6 hours before irradiation.
# Whole body irradiation of animals with 8 Gy of γ-rays is carried out in air at room temperature in a gamma chamber (Gammacell 40 Exactor), at a dose-rate of 1.05 Gy/min. This radiation dose is within the range of equivalent human exposures predicted in many scenarios of radiologic or nuclear terrorist attack. […]
# Group III: β-lapachone (200 mg/kg body weight) is orally administered to mice 6 hours before radiation.
# Group IV: β-lapachone (200 mg/kg body weight) is orally administered to mice 4 hours before radiation.
# Group V: β-lapachone (200 mg/kg body weight) is orally administered to mice 2 hours before radiation.
# Group VI: β-lapachone (200 mg/kg body weight) is orally administered to mice 1 hour before radiation.
# Group VII: β-lapachone (200 mg/kg body weight) is orally administered to mice 0.5 hour before radiation.
# (§3) Animals are irradiated with 8 Gy at 1.05 Gy/min dose-rate. After irradiation mice are returned to their cage and observed on a regular basis. Exposure to γ-rays causes lethality in animals. Importantly, treatment with β-lapachone, especially at a level of 200 mg/kg orally at one hour prior to irradiation, diminishes the death rate.
# [2] = tested on: C57BL/6J inbred strain female mice; assay: Histologic spleen cellularity after whole body irradiation, hematoxylin-eosin sections (Example 7c); format: in vivo; conditions: 40 mg/kg i.p. 0.5 hour before 5 Gy (nonlethal); five days after irradiation
# Method: Spleen cellularity is qualitatively assessed following whole body gamma irradiation in mice, with and without pretreatment with β-lapachone, as follows. β-lapachone is prepared at 10 mg/ml in 40% hydroxypropyl-beta-cyclodextrin (HPBCD). C57BL/6J inbred strain female mice (4-5 weeks old) are organized into three groups of six mice each: Group I mice receive no radiation, no β-lapachone, and no carrier; Group II mice receive radiation and are injected with carrier (40% HPBCD 4 ml/kg body weight); and Group III mice are injected intraperitoneally at 0.5 hour before irradiation with β-lapachone (40 mg/kg body weight). Whole body irradiation of animals with 8 Gy (lethal radiation) or 5 Gy (sublethal radiation) of γ-rays is carried out in air at room temperature in a gamma chamber (Gammacell 40 Exactor), with a dose-rate of 1.05 Gy/min. This radiation dose is within the range of equivalent human exposures predicted in many scenarios of radiologic or nuclear terrorist attack. Following irradiation, animals are maintained in a climate-controlled animal facility. Three mice in each of Groups I, II, and III are sacrificed on day five following irradiation, and an analysis of splenic cellularity is performed for each. […] Splenic cellularity is qualitatively assessed in sections stained with hematoxylin-eosin following standard procedures.
# [3] = tested on: E2F1 in human colon cancer cells (SW480); assay: E2F1 level in whole cell extracts, SDS/PAGE and enhanced chemiluminescence, colon cancer cells; format: cell-based; conditions: SW480, 2 μM, 20 minute to 4 hour exposures
# Method: Human colon cancer cells (SW480) and normal colon cells (NCM460) are treated with β-lapachone at a concentration of 2 μM and are harvested after 20 minute, 1 hour, 2 hour, or 4 hour exposures. Whole cell extracts are prepared and resolved by SDS/PAGE. An enhanced chemiluminescence assay system (Amersham Pharmacia) is used to determine the E2F1 level. Monoclonal antibody against […] is obtained from Santa Cruz Biotechnology (Santa Cruz, Calif.). […] Elevation of E2F1 following exposure to β-lapachone persists through cell death in cancer cells.
# [4] = tested on: C57BL/6J inbred strain female mice; assay: Survival after 8 Gy whole body γ-irradiation, intraperitoneal dosing 4 hours before or after (Example 4); format: in vivo; conditions: for No. of animals surviving at 20 days post-irradiation: 4 animals; for Death rate (%): 20 days
# Method: as §1, §2
# Animals are injected with different concentrations of β-lapachone (20 and 40 mg/kg body weight) intraperitoneally 4 hours before or after irradiation.
# Whole body irradiation of animals with 8 Gy of γ-rays is carried out in air at room temperature in a gamma chamber (Gammacell 40 Exactor), at a dose-rate of 1.05 Gy/min. This radiation dose is within the range of equivalent human exposures predicted in many scenarios of radiologic or nuclear terrorist attack.
# Mice are divided into the following groups (each Group comprises four mice receiving identical treatment):
# Group II: Mice are injected with β-lapachone 20 mg/kg body weight 4 hours before radiation.
# Group III: Mice are injected with β-lapachone 40 mg/kg body weight 4 hours before radiation.
# Group IV: Mice are injected with β-lapachone 20 mg/kg body weight 4 hours after radiation.
# Group V: Mice are injected with β-lapachone 40 mg/kg body weight 4 hours after radiation.
# Group VI: Mice are injected with amifostine 10 mg/kg body weight 4 hours before radiation.
# as §3, with “40” for “200”, “mg/kg” for “mg/kg orally at one hour”
# [5] = 200 mg/kg p.o. 0.5 hr before Radiation 8 Gy
# [6] = 200 mg/kg p.o. 1 hr before Radiation 8 Gy
# [7] = 200 mg/kg p.o. 2 hr before Radiation 8 Gy
# [8] = 200 mg/kg p.o. 4 hr before Radiation 8 Gy
# [9] = 200 mg/kg p.o. 6 hr before Radiation 8 Gy
# [10] = 20 mg/kg i.p. 4 hr after Radiation 8 Gy
# [11] = 20 mg/kg i.p. 4 hr before Radiation 8 Gy
# [12] = 40 mg/kg i.p. 4 hr before Radiation 8 Gy
# [13] = Radiation 8 Gy 4 hr → 20 mg/kg as printed (second such line of Table 1)
structure (smiles),measurement,setting,value
"CC1(C)CCC2=C(O1)c1ccccc1C(=O)C2=O [β-lapachone, 3,4-dihydro-2,2-dimethyl-2H-naphtho[1,2-b]pyran-5,6-dione]",Median survival time,[1]; [5],10 days
same,No. of animals surviving at 20 days post-irradiation,[1]; [5],0
same,Death rate (%),[1]; [5],100%
same,Survival of the treated mice at day 50 post irradiation (FIG. 7),[1]; 200 mg/kg p.o. 1 hour prior to 8 Gy,more than 30%
same,Median survival time,[1]; [6],18 days
same,No. of animals surviving at 20 days post-irradiation,[1]; [6],3
same,Death rate (%),[1]; [6],70%
same,Median survival time,[1]; [7],10 days
same,No. of animals surviving at 20 days post-irradiation,[1]; [7],0
same,Death rate (%),[1]; [7],100%
same,Median survival time,[1]; [8],14 days
same,No. of animals surviving at 20 days post-irradiation,[1]; [8],0
same,Death rate (%),[1]; [8],100%
same,Median survival time,[1]; [9],18 days
same,No. of animals surviving at 20 days post-irradiation,[1]; [9],1
same,Death rate (%),[1]; [9],90%
same,Spleen structure and cellularity judged histologically (FIG. 10),[2],protective effect on spleen structure and cellularity
same,E2F1 level,[3],Elevation of E2F1 is seen in tumor cells; also recorded: induces increased expression of E2F1
same,Median survival time,[4]; [10],14 days
same,No. of animals surviving at 20 days post-irradiation,[4]; [10],1
same,Death rate (%),[4]; [10],75%
same,Median survival time,[4]; [11],13.5 days
same,No. of animals surviving at 20 days post-irradiation,[4]; [11],0
same,Death rate (%),[4]; [11],100%
same,Median survival time,[4]; 40 mg/kg i.p. 4 hr after Radiation 8 Gy,16.4 days
same,Median survival time,[4]; [12],25 days
same,No. of animals surviving at 20 days post-irradiation,[4]; [12],3
same,Death rate (%),[4]; [12],25%
same,Temporal survival pattern (FIG. 5),"[4]; 20, 40 mg/kg i.p., 4 hours before or after 8 Gy, vs control decline at 10-14 days",delayed this early decline in survival
same,No. of animals surviving at 20 days post-irradiation,[4]; [13],0
same,Death rate (%),[4]; [13],100%
